For this assay, the target named is T1, CFTR (Homo sapiens, UniProt P13569, DEL508-508).
T1 construct: endogenous in cells; host or cells: primary human bronchial epithelial cells from CF subjects (F508del/MF-HBE), differentiated at air-liquid interface
Nature of the assay: HBE assay: Ussing chamber assay of CFTR-mediated short-circuit currents. The format is cell-based. Conditions: for EC50: read-out: HBE EC50. A digest of the protocol: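 CFTR-mediated Isc (μA/cm²) equals the peak response to apical 20 μM forskolin minus the residual after a 20 μM each BPO/GlyH-101/CFTR inhibitor 172 cocktail, recorded in Ussing chambers at Vhold 0 mV, 37 °C, pH 7.4, with 30 μM apical amiloride. Cells were F508del/MF HBE cultures preincubated 18-24 h with corrector (concentration range or 10 μM) plus 1 μM ivacaftor in 20% human serum.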

[1] abbreviates: Table 12, read-out: HBE Max Activity (%).
Where [2] appears, read: Table 11, read-out: HBE Max Activity (%).
The mark [3] stands for this setting: HBE assay, 10 μM, read-out: HBE Activity at 10 μM (%).
Setting [4] is: Table 13, at 10 μM, read-out: HBE Activity at 10 μM (%).
Where [5] appears, read: Table 13, read-out: HBE Max Activity (%).
Setting [6] is: Table 10, read-out: HBE Max activity (%).
Setting [7] is: HBE assay, read-out: HBE Max activity (%).
Setting [8] is: Table 10, at 10 μM, read-out: HBE activity at 10 (μM) (%).

Read-outs that look alike come from different tables or passages of the source. A value given as a limit tells only on which side of the number the result lay.

T1 sequence (P13569 with tags, fused parts or gaps DEL508-508): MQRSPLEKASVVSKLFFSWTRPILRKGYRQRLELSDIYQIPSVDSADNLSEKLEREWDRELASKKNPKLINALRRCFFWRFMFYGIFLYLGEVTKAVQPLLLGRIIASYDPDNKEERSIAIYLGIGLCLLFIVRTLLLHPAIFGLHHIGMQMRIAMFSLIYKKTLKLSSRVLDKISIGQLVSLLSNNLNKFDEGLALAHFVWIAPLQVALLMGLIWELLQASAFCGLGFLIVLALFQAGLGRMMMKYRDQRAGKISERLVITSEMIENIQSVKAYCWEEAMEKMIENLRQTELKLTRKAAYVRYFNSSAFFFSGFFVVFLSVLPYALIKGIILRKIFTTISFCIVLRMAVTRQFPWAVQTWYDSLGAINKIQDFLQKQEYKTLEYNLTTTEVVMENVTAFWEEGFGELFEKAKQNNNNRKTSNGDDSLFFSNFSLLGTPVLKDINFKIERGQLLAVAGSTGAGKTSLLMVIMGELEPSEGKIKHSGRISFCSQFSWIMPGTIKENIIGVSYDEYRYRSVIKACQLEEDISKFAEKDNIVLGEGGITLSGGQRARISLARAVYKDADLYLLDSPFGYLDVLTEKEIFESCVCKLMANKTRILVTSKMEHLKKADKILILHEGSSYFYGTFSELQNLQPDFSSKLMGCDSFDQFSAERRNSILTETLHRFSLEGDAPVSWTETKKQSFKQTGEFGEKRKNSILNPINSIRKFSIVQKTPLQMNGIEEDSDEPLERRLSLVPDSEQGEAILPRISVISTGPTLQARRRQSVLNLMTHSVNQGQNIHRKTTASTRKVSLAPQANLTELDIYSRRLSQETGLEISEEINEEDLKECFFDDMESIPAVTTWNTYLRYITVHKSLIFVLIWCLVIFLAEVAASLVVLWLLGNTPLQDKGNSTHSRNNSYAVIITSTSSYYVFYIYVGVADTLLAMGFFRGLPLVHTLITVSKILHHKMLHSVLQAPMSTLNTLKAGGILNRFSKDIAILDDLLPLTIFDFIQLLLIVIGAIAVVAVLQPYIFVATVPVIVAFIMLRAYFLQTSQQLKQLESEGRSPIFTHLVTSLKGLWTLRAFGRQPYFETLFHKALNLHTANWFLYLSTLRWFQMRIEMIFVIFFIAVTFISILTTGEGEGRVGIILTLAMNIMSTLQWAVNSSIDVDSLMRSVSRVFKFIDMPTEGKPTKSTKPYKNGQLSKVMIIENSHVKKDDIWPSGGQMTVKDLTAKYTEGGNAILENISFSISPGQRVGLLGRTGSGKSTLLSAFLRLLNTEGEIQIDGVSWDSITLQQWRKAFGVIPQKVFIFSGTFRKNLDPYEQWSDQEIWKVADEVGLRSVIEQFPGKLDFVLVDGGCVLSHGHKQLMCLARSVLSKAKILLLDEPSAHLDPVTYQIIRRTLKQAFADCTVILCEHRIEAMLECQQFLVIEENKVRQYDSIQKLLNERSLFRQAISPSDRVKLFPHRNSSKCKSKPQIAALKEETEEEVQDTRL

For the compound `Cc1cccc(C)c1-c1cc2nc(n1)NS(=O)(=O)c1cccc(c1)C(=O)N(CC1OCCCC1(C)C)[C@H](CC(C)(C)C)CO2` (single isomer, unassigned) [Compound 35], the activation at 10 µM (Table 11, at 10 μM, read-out: HBE Activity at 10 μM (%)) is above 60%.
The EC50 is the concentration at which the effect is half-maximal. For the compound `Cc1cccc(C)c1-c1cc2nc(n1)NS(=O)(=O)c1cccc(c1)C(=O)N(Cc1cnc(OC(C)C)nc1)[C@H](CC(C)(C)C)CO2` [Compound 270], the EC50 (Table 12) is below 1000 nM. Besides, the Emax under setting [1] is above 60%.
Take `Cc1cccc(C)c1-c1cc2nc(n1)NS(=O)(=O)c1cccc(c1)C(=O)N(CC1CCC(C)(C)O1)[C@H](CC(C)(C)C)CO2` (single isomer, unassigned) [Compound 34]: the EC50 (Table 11) was below 1000 nM. In addition, the Emax under setting [2] is above 60%.
`COCC1(CNc2cncc(CN3C(=O)c4cccc(c4)S(=O)(=O)Nc4nc(cc(-c5c(C)cccc5C)n4)OC[C@H]3CC(C)(C)C)n2)CC1` [Compound 1484]: the activation at 10 µM under setting [3] was above 60%.
Consider `Cc1cccc(C)c1-c1cc2nc(n1)NS(=O)(=O)c1cccc(c1)C(=O)N(Cc1ncc(N3[C@H](C)CC[C@@H]3C)cn1)[C@H](CC(C)(C)C)CO2` [Compound 535], for which the activation at 10 µM under setting [4] is above 600%. For the same compound, the EC50 (Table 13) was below 1000 nM. Also, under setting [5], the Emax is above 60%.
`Cc1cccc(C)c1-c1cc2nc(n1)NS(=O)(=O)c1cccc(n1)C(=O)N(Cc1cccc(N(C)C3CC4(CC4)C3)n1)[C@H](CC(C)(C)C)CO2` [Compound 1143]: under “Table 13”, the EC50 was below 1000 nM. Moreover, the Emax under setting [5] is above 60%.
As to `Cc1cccc(C)c1-c1cc2nc(n1)NS(=O)(=O)c1cccc(c1)C(=O)N(Cc1ccc(C(C)(C)C)nc1C)[C@H](CC(C)(C)C)CO2` [Compound 528], under setting [6], the Emax was above 60%.
As to `COCCN(c1cccc(CN2C(=O)c3cccc(c3)S(=O)(=O)Nc3nc(cc(-c4c(C)cccc4C)n3)OC[C@H]2CC(C)(C)C)n1)C(C)C` [Compound 564], the EC50 (Table 12) was below 1000 nM. For the same compound, under setting [1], the Emax was above 60%.
For `COCCN(CC(C)C)c1cncc(CN2C(=O)c3cccc(c3)S(=O)(=O)Nc3nc(cc(-c4c(C)cccc4C)n3)OC[C@H]2CC(C)(C)C)n1` [Compound 1418], under “HBE assay”, the EC50 is below 1000 nM. Also, the Emax under setting [7] was above 60%.
With `Cc1cccc(C)c1-c1cc2nc(n1)NS(=O)(=O)c1cccc(c1)C(=O)N(Cc1ncc(N3CCC(C)(C)C3)cn1)[C@H](CC(C)C)CO2` [Compound 606], the concentration giving a half-maximal response (EC50) (Table 11) is below 1000 nM. In addition, the Emax under setting [2] was above 60%.
On the same counts, the results for `COC1CCN(c2cccc(CN3C(=O)c4cccc(c4)S(=O)(=O)Nc4nc(cc(-c5c(C)cccc5C)n4)OC[C@H]3CC(C)(C)C)n2)C1` (some centres unmarked) [Compound 625] are below 1000 nM and above 60%.
Taken in the same sequence, the figures for `Cc1cccc(C)c1-c1cc2nc(n1)NS(=O)(=O)c1cccc(c1)C(=O)N(C[C@@H]1CN(CC(C)(C)C)CCO1)[C@H](CC(C)(C)C)CO2` [Compound 142, (11R)-6-(2,6-Dimethylphenyl)-11-(2,2-dimethylpropyl)-12-{[(2S)-4-(2,2-dimethylpropyl)morpholin-2-yl]methyl}-9-oxa-2λ^6-thia-3,5,12,19-tetraazatricyclo[12.3.1.14,8]nonadeca-1(17),4,6,8(19),14(18),15-hexaene-2,2,13-trione] were below 1000 nM and above 60%.
With `Cc1cccc(C)c1-c1cc2nc(n1)NS(=O)(=O)c1cccc(c1)C(=O)N(Cc1ccnc(N(C)CC(C)(C)C)n1)[C@H](CC(C)(C)C)CO2` [Compound 601], the EC50 (Table 11) is below 1000 nM. In addition, the Emax under setting [2] is above 60%.
As for `Cc1cccc(C)c1-c1cc2nc(n1)NS(=O)(=O)c1cccc(c1)C(=O)N(Cc1cccc(/C=C/C(C)(C)C)n1)[C@H](CC(C)(C)C)CO2` [Compound 588], the 50% effective concentration (EC50) (Table 12) was below 1000 nM. Further, under setting [1], the Emax was above 60%.
As for `Cc1cccc(C)c1-c1cc2nc(n1)NS(=O)(=O)c1cccc(c1)C(=O)N(Cc1ncc(N3CC[C@H]3C)cn1)[C@H](CC(C)(C)C)CO2` [Compound 1405], the EC50 (HBE assay) was below 1000 nM. The Emax under setting [7] is above 60%.
For `Cc1cccc(C)c1-c1cc2nc(n1)NS(=O)(=O)c1cccc(c1)C(=O)N(Cc1nccc3ccccc13)[C@H](CC(C)(C)C)CO2` [Compound 767], the EC50 (Table 10) is below 1000 nM. Moreover, the Emax under setting [6] was above 60%.
Consider `Cc1cccc(C)c1-c1cc2nc(n1)NS(=O)(=O)c1cccc(c1)C(=O)N(Cc1cncc(N(C)CC3C4(CC4)C34CC4)n1)[C@H](CC(C)(C)C)CO2` [Compound 442], for which the EC50 (Table 12) was below 1000 nM. For the same compound, the Emax under setting [1] was above 60%.
Regarding `Cc1cccc(C)c1-c1cc2nc(n1)NS(=O)(=O)c1cccc(c1)C(=O)N(Cc1cncc(N3CCCC3C(C)C)n1)[C@H](CC(C)(C)C)CO2` (some centres unmarked) [Compound 1383], the EC50 (HBE assay) is below 1000 nM. Under setting [7], the Emax is above 60%.
On to `Cc1cccc(C)c1-c1cc2nc(n1)NS(=O)(=O)c1cccc(c1)C1Oc3ncc4ccccc4c3CN1[C@H](CC(C)(C)C)CO2` (some centres unmarked) [Compound 753], for which the activation at 10 µM under setting [8] lay within 30 to 60%.
Take `Cc1cccc(C)c1-c1cc2nc(n1)NS(=O)(=O)c1cccc(c1)C(=O)N(Cc1cccc(N(C)C(C)C(C)(C)C)n1)[C@H](CC(C)(C)C)CO2` (some centres unmarked) [Compound 1427]: under setting [3], the activation at 10 µM was above 60%.
Consider `Cc1cccc(C)c1-c1cc2nc(n1)NS(=O)(=O)c1cccc(c1)C(=O)N(Cc1ncc(OC3CC3)cn1)[C@H](CC(C)(C)C)CO2` [Compound 1129], for which the EC50 (Table 13) is below 1000 nM. Under setting [5], the Emax was above 60%.
Take `CC[C@@H](C)Oc1cnc(CN2C(=O)c3cccc(c3)S(=O)(=O)Nc3nc(cc(-c4c(C)cccc4C)n3)OC[C@H]2CC(C)(C)C)nc1` [Compound 1375]: the EC50 (HBE assay) is below 1000 nM. The Emax under setting [7] is above 60%.
In the case of `Cc1cccc(C)c1-c1cc2nc(n1)NS(=O)(=O)c1cccc(c1)C(=O)N(CC(=O)NC1CCCC(C)(C)C1)[C@H](CC(C)(C)C)CO2` (some centres unmarked) [Compound 175], the activation at 10 µM under setting [4] is above 600%.
For the compound `Cc1cccc(C)c1-c1cc2nc(n1)NS(=O)(=O)c1cccc(c1)C(=O)N(CC(=O)N1CCC3(CCCC3)CC1)[C@H](CC(C)(C)C)CO2` [Compound 183], the activation at 10 µM under setting [4] is above 600%.
For `Cc1cccc(C)c1-c1cc2nc(n1)NS(=O)(=O)c1cccc(c1)C(=O)N(Cc1ccccc1-c1csc(OC(C)C)n1)[C@H](CC(C)(C)C)CO2` [Compound 305], under setting [8], the activation at 10 µM is above 60%.
`Cc1cccc(C)c1-c1cc2nc(n1)NS(=O)(=O)c1cccc(c1)C(=O)N(C[C@H]1CC[C@@H](N3CCCC3=O)CC1)[C@H](CC(C)(C)C)CO2` [Compound 910]: the half-maximal effective concentration (EC50) (Table 10) was below 1000 nM. Moreover, the Emax under setting [6] was above 60%.
`Cc1cccc(C)c1-c1cc2nc(n1)NS(=O)(=O)c1cccc(c1)C(=O)N(Cc1nccc(N(C)C(C)C)n1)[C@H](CC1CC1)CO2` [Compound 459]: the EC50 (Table 12) is below 1000 nM. For the same compound, under setting [1], the Emax is above 60%.
`Cc1cccc(C)c1-c1cc2nc(n1)NS(=O)(=O)c1cccc(c1)C(=O)N(Cc1ncc(O[C@H](C)C(C)C)cn1)[C@H](CC(C)C)CO2` [Compound 1434]: the EC50 (HBE assay) lay within 1000 to 3000 nM. Moreover, the Emax under setting [7] was above 60%.
Take `COCCN(C)c1cncc(CN2C(=O)c3cccc(c3)S(=O)(=O)Nc3nc(cc(-c4c(C)cccc4C)n3)OC[C@H]2CC(C)(C)C)n1` [Compound 895]: the 50% effective concentration (EC50) (Table 11) is below 1000 nM. For the same compound, the Emax under setting [2] was above 60%.
Turning to `Cc1cccc(C)c1-c1cc2nc(n1)NS(=O)(=O)c1cccc(c1)C(=O)N(Cc1cncc(N3CCC[C@H]3C(C)C)n1)[C@H](CC1CC1)CO2` [Compound 1499], the activation at 10 µM under setting [3] was above 60%. Besides, the EC50 (HBE assay) is below 1000 nM. Moreover, the Emax under setting [7] was above 60%.
`COC[C@@H]1CCCN1c1cncc(CN2C(=O)c3cccc(c3)S(=O)(=O)Nc3nc(cc(-c4c(C)cccc4C)n3)OC[C@H]2CC(C)(C)C)n1` [Compound 273]: the half-maximal effective concentration (EC50) (Table 12) was below 1000 nM. Also, the Emax under setting [1] is above 60%.
Turning to `Cc1cccc(C)c1-c1cc2nc(n1)NS(=O)(=O)c1cccc(c1)C(=O)N(Cc1ncc(N3CC4CC3CO4)cn1)[C@H](CC(C)(C)C)CO2` (some centres unmarked) [Compound 546], the EC50 (Table 12) was below 1000 nM.
Regarding `CCN(CC)c1cccc(CN2C(=O)c3cccc(c3)S(=O)(=O)Nc3nc(cc(-c4c(C)cccc4C)n3)OC[C@H]2CC(C)(C)C)n1` [Compound 711], the concentration giving a half-maximal response (EC50) (Table 11) was 1000 to 3000 nM. Further, the Emax under setting [2] was above 60%.
With `CCOc1cnc(CN2C(=O)c3cccc(c3)S(=O)(=O)Nc3nc(cc(-c4c(C)cccc4C)n3)OC[C@H]2CC2CC2)nc1` [Compound 1482], the concentration giving a half-maximal response (EC50) (HBE assay) is below 1000 nM. Under setting [7], the Emax was above 60%.
For `Cc1cccc(C)c1-c1cc2nc(n1)NS(=O)(=O)c1cccc(c1)C(=O)N(Cc1cccc(CC(C)C)n1)[C@H](CC(C)(C)C)CO2` [Compound 583], the EC50 (Table 12) is below 1000 nM. The Emax under setting [1] was above 60%.
Turning to `Cc1cccc(C)c1-c1cc2nc(n1)NS(=O)(=O)c1cccc(c1)C(=O)N(Cc1nccc(N(C)C(C3CC3)C3CC3)n1)[C@H](CC(C)(C)C)CO2` [Compound 434], under setting [4], the activation at 10 µM is above 600%.
As for `CCOc1ccc(CN2C(=O)c3cccc(c3)S(=O)(=O)Nc3nc(cc(-c4c(C)cccc4C)n3)OC[C@H]2CC(C)(C)C)nc1` [Compound 745], the EC50 (Table 11) was below 1000 nM. Under setting [2], the Emax was above 60%.
In the case of `Cc1cccc(C)c1-c1cc2nc(n1)NS(=O)(=O)c1cccc(c1)C(=O)N(CC(=O)N(C)CC1CCCCC1)[C@H](CC(C)(C)C)CO2` [Compound 231], the EC50 (Table 12) is below 1000 nM. The Emax under setting [1] is above 60%.

(Values after US20240150377A1, “MODULATORS OF CYSTIC FIBROSIS TRANSMEMBRANE CONDUCTANCE REGULATOR” (VERTEX PHARMACEUTICALS INCORPORATED, priority 2020, published 2024).)
